From patent publication US4220643A, “Nitrosourea pentose compounds” (priority 1977, dated 1980)

Legend:
[1] = tested on: experimental tumors; conditions: wide variety of experimental tumors; refers to U.S. Pat. No. 4,086,415; cited from earlier work
[2] = Acute toxicity in intraperitoneal administration to BDF1 mice; conditions: mouse, in vivo, ip
Excerpt: The nitrosourea compounds according to this invention are further characterized by their low toxicity. Thus, acute toxicity of the compounds in intraperitoneal administration to BDF1 mice is as follows: […]

[3] = tested on: Leukemia L 1210 cells; assay: Anti-leukemic activity on Leukemia L 1210 in mice (60 days observation); type: in vivo, mice (male BDF1); conditions: for ILS (percentage increase in life-span) / Mean survival days: 60 days observation
Procedure: The anti-leukemic activity of both the anomers of this invention was tested on Leukemia L 1210 in mice, details of which are given below. By way of comparison, the 1-methyl homologue of the β-anomer of this invention, i.e. 1-methyl-1-nitroso-3-(β-D-ribofuranosyl) urea (refer to T. Suami et al., Japanese Patent Prepublication No. 83365/75), was tested in a similar way.
Male BDF1 mice, aged about 7-weeks old and weighing 22±3 g were used in groups of three animals each for the test of compounds No. 1 and No. 2 or of two animals each for the test of compound No. 3.
Leukemia L 1210 cells were used. For the test of compounds No. 1 and No. 2, 2×10^6 cells/0.04 ml/mouse were intraperitoneally inoculated and for the test of compound No. 3, 1.8×10^6 /0.04 ml/mouse were intraperitoneally inoculated.
The test compound was dissolved in a physiological salt solution to give a series of solutions in predetermined concentrations and 0.1 ml of the each solution was administered intraperitoneally to each mouse once a day from the 24th hour after the tumor cell inoculation for 3 consecutive days for the test of compounds No. 1 and No. 2 or for 2 consecutive days for the test of compound No. 3. The anti-leukemic activity of the compounds tested was assessed by mean survival days, percentage increase in life-span, number of survivors after 60 days observation and the volume of ascites. The percentage increase in life-span (ILS) was calculated as follows: […]
T: The mean survival days of the treated animals
C: The mean survival days of the untreated animals
The control test for this purpose was carried out in the same way as that used for the test of compounds No. 1 and No. 2 or for the test of compound No. 3 except that 0.1 ml of the physiological salt solution was administered in place of the solution of the test compound.

[4] = 1 mg/kg i.p. once daily, 3 consecutive days
[5] = 2 mg/kg i.p. once daily, 3 consecutive days
[6] = 2 mg/kg i.p. once daily, 3 consecutive days, untreated control 4.5 ml
[7] = 4 mg/kg i.p. once daily, 3 consecutive days
[8] = 4 mg/kg i.p. once daily, 3 consecutive days, untreated control 4.5 ml
[9] = 8 mg/kg i.p. once daily, 3 consecutive days
[10] = 8 mg/kg i.p. once daily, 3 consecutive days, untreated control 4.5 ml
[11] = 16 mg/kg i.p. once daily, 3 consecutive days
[12] = 16 mg/kg i.p. once daily, 3 consecutive days, untreated control 4.5 ml
[13] = dose not given, i.p. once daily, 3 consecutive days
[14] = 50 mg/kg i.p. once daily, 2 consecutive days
[15] = 100 mg/kg i.p. once daily, 2 consecutive days
[16] = 200 mg/kg i.p. once daily, 2 consecutive days
[17] = 250 mg/kg i.p. once daily, 2 consecutive days

Structure (SMILES)	LD50 [2]	Number of survivors (after 60 days) [3, 5]	ILS (percentage increase in life-span) [3, 5]	Mean survival days [3, 5]	Volume of ascites [3, 6]	Number of survivors (after 60 days) [3, 7]	ILS (percentage increase in life-span) [3, 7]	Mean survival days [3, 7]	Volume of ascites [3, 8]	Number of survivors (after 60 days) [3, 9]	ILS (percentage increase in life-span) [3, 9]	Mean survival days [3, 9]	Volume of ascites [3, 10]	Number of survivors (after 60 days) [3, 11]	ILS (percentage increase in life-span) [3, 11]	Mean survival days [3, 11]	Volume of ascites [3, 12]	other results
O=NN(CCCl)C(=O)N[C@@H]1O[C@H](CO)[C@@H](O)[C@H](O)[C@H]1O [GANU, 1-(2-chloroethyl)-3-(β-D-glucopyranosyl)-1-nitrosourea]																		Antitumor activity, in words [1]: broad spectrum of antitumor activity against a wide variety of experimental tumors
O=NN(CCCl)C(=O)N[C@H]1O[C@H](CO)[C@@H](O)[C@H]1O [compound 1, 1-(2-chloroethyl)-1-nitroso-3-(α-D-ribofuranosyl) urea]	34 mg/kg	0/3	50.0%	15.3 days	0 mL	2/3	> 383.0%	> 48.3 days	0 mL	2/3	> 323.0%	> 42.3 days	0 mL	0/3	13.0%	11.3 days	0 mL	Number of survivors (after 60 days) [3, 4]: 0/3; ILS (percentage increase in life-span) [3, 4]: 37.0%; Mean survival days [3, 4]: 13.7 days; Volume of ascites ([3]; 1 mg/kg i.p. once daily, 3 consecutive days, untreated control 4.5 ml): 1.7 mL
O=NN(CCCl)C(=O)N[C@@H]1O[C@H](CO)[C@@H](O)[C@H]1O [compound 2, 1-(2-chloroethyl)-1-nitroso-3-(β-D-ribofuranosyl) urea]	30 mg/kg	1/3	> 223.0%	> 32.3 days	0 mL	2/3	> 360.0%	> 46.0 days	0 mL	3/3	> 500.0%	> 60.0 days	0 mL	0/3	-13.0%	8.7 days	0 mL	Number of survivors (after 60 days) [3, 13]: 0/3; ILS (percentage increase in life-span) [3, 13]: 53.0%; Mean survival days [3, 13]: 15.3 days; Volume of ascites ([3]; dose not given, i.p. once daily, 3 consecutive days, untreated control 4.5 ml): 2.5 mL
CN(N=O)C(=O)N[C@@H]1O[C@H](CO)[C@@H](O)[C@H]1O [compound 3, 1-methyl-1-nitroso-3-(β-D-ribofuranosyl) urea, reference compound]																		Number of survivors (after 60 days) [3, 14]: 0/2; ILS (percentage increase in life-span) [3, 14]: 50.0%; Mean survival days [3, 14]: 15.0 days; Volume of ascites ([3]; 50 mg/kg i.p. once daily, 2 consecutive days, untreated control 5.3 ml): 4.6 mL; Number of survivors (after 60 days) [3, 15]: 0/2; ILS (percentage increase in life-span) [3, 15]: 50.0%; Mean survival days [3, 15]: 15.0 days; Volume of ascites ([3]; 100 mg/kg i.p. once daily, 2 consecutive days, untreated control 5.3 ml): 0.7 mL; Number of survivors (after 60 days) [3, 16]: 0/2; ILS (percentage increase in life-span) [3, 16]: 80.0%; Mean survival days [3, 16]: 18.0 days; Volume of ascites ([3]; 200 mg/kg i.p. once daily, 2 consecutive days, untreated control 5.3 ml): 0.3 mL; Number of survivors (after 60 days) [3, 17]: 0/2; ILS (percentage increase in life-span) [3, 17]: 15.0%; Mean survival days [3, 17]: 11.5 days; Volume of ascites ([3]; 250 mg/kg i.p. once daily, 2 consecutive days, untreated control 5.3 ml): 0.6 mL
